Laboratory results as given in patent US20080064718A1, “INHIBITORS OF PROTEIN TYROSINE KINASE ACTIVITY” (priority 2006, published 2008).

Tests used:
VEGF receptor KDR = biological target: T1, VEGF receptor KDR (Homo sapiens, UniProt P35968); experiment: In vitro receptor tyrosine kinase assay, VEGF receptor KDR (DELFIA); format: biochemical; settings: GST-VEGFR2 806-1356, ATP 0.6 uM; read-out: VEGFR IC50
T1 construct: made in house; host or cells: Sf9 cells (Spodoptera frugiperda), recombinant baculovirus
T1 sequence (P35968 806-1356): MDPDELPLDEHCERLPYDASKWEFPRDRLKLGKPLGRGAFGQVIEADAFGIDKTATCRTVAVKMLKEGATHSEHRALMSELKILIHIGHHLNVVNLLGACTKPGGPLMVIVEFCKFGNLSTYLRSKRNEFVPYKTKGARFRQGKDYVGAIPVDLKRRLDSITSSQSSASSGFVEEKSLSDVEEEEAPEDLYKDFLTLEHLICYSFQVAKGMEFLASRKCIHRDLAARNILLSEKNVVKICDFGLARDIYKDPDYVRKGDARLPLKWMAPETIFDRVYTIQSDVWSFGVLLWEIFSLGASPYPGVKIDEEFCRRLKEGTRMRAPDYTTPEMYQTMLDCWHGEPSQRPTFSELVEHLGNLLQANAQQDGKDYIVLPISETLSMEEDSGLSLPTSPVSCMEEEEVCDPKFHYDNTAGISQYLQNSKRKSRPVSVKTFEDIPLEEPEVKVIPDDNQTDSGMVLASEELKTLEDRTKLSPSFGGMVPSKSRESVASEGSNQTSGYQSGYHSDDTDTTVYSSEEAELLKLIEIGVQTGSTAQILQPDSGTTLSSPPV
Excerpt: In the case of VEGF receptor KDR a 1.6-kb cDNA corresponding to the catalytic domain of VEGFR2 or KDR (Genbank accession number AF035121 amino acid 806 to 1356) is cloned into the Pst I site of the pDEST20 Gateway vector (Invitrogen) for the production of a GST-tagged version of that enzyme.
The GST-VEGFR2806-1356 protein is expressed in Sf9 cells (Spodoptera frugiperda) upon infection with recombinant baculovirus construct.
The supernatant is loaded onto a GST-agarose column (Sigma) equilibrated with PBS pH 7.3. Following a four column volume (CV) wash with PBS pH 7.3+1% Triton X-100 and 4 CV wash with buffer B (50 mM Tris pH 8.0, 20% glycerol and 100 mM NaCl), bound proteins are step eluted with 5 CV of buffer B supplemented with 5 mM DTT and 15 mM glutathion. […] Final GST-VEGFR2806-1356 protein preparations concentrations are about 0.7 mg/ml with purity approximating 70%.

A549 = A549 inhibition of wound healing; format: cell-based; settings: Homo sapiens; A549 cells; read-out: A549 INHIB WND ING IC50 UM
DU145 = DU145 scattering; format: cell-based; settings: Homo sapiens, DU-145; DU145 cells; read-out: CMET DU145 SCATT HEAL- IC50 UM
c-Met = biological target: T2, c-Met (Homo sapiens, UniProt P08581); experiment: c-Met phosphorylation direct ELISA in MKN45 cells; format: cell-based; settings: 3 h treatment
T2 construct: endogenous in cells; host or cells: MKN45 gastric carcinoma cells
T2 sequence (P08581 25-1390): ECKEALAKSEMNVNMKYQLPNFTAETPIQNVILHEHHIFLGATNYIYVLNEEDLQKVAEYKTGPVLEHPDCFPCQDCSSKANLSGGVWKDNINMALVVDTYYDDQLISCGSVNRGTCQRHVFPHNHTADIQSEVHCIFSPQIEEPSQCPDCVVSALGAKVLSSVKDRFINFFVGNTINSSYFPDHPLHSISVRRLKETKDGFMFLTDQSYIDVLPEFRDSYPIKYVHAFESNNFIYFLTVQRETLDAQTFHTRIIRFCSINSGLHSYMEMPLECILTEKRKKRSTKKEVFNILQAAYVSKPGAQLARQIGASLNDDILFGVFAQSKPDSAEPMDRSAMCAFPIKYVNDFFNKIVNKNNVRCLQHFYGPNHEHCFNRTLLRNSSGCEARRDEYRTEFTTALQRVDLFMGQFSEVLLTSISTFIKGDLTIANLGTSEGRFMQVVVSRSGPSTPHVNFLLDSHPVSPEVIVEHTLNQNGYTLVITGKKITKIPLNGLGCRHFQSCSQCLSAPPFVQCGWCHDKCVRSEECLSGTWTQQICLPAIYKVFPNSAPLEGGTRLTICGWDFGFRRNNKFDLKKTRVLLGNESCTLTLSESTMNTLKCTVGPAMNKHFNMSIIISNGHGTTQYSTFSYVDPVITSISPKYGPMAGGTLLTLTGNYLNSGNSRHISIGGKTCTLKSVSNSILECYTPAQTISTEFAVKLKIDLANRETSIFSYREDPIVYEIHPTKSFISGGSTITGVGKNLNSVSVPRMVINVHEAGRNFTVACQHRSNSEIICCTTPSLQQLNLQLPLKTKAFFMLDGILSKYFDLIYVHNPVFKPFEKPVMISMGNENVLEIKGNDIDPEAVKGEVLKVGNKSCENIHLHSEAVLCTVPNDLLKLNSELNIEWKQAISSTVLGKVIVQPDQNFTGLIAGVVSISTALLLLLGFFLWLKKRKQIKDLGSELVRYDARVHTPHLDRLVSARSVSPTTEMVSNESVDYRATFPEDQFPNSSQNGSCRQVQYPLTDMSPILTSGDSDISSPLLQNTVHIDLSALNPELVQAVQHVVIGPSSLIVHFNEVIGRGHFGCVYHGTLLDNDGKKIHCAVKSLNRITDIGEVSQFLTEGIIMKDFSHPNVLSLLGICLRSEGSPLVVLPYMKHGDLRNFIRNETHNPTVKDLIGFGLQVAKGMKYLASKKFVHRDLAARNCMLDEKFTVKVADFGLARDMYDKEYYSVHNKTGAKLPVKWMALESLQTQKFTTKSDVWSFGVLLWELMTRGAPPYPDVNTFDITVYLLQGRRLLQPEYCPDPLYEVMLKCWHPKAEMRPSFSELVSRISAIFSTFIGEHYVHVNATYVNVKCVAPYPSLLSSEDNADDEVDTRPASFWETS
Procedure: Alternatively, the following assay is used to determine inhibition of c-Met phosphorylation.
The c-Met receptor is expressed in numerous cancer cell lines derived from tumors of epithelial origin. In MKN45 gastric carcinoma cells the c-Met gene is amplified, resulting in several-fold overexpression of the receptor and its constitutive activation.
Cell treatments: MKN45 cells are seeded into wells of 96-well plates at a density of 3×10^4 cells/well in RPMI medium supplemented with 10% FBS. […] Inhibitors are added to the medium in triplicate wells at the indicated doses.
After an overnight protein binding incubation at 4° C., lysates are aspirated and wells are blocked for 1 h at 37° C. in TBST supplemented with 5% BSA. Plates are incubated with the primary antibodies anti-phospho-Tyrosine (Millipore, 4G10) diluted 1/15000 in TBST supplemented with 5% BSA for 1 h at room temperature. Plates are washed 3 times on a plate washer (SkanWasher, Molecular Devises), and incubated with the reporter antibody […] (Sigma) diluted 1/15000 in TBST supplemented with 5% BSA, for 1 h at room temperature. Plates are washed 3 times with TBST using on a plate washer and subsequently incubated with chemiluminescent substrate solution (ECL, Roche). Luminescence signal is captured on a Polar Star Optima apparatus (BMG LabTech).
Average values of the triplicate samples are used to prepare IC50 curves using a 4-parameter fit model. These curves are calculated using, for example, GraFit 5.0 software. For assay standardization purpose, an internal control is included on each experimental test plate.

[1] = biological target: recombinant human c-Met/HGF receptor (Homo sapiens, UniProt P08581); experiment: In vitro receptor tyrosine kinase assay, c-Met/HGF receptor (DELFIA)
Chain of recombinant human c-Met/HGF receptor (P08581 1078-1337): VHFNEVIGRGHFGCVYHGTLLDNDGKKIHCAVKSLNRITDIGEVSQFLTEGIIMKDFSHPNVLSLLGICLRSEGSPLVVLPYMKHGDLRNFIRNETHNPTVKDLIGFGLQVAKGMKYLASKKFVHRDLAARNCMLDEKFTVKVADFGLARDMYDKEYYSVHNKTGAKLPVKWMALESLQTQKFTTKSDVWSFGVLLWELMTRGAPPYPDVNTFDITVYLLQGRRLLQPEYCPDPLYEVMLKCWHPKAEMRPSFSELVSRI

Row | Compound | IC50 (VEGF receptor KDR) [µM] | IC50 (A549) [µM] | IC50 (DU145) [µM] | IC50 (c-Met) [µM] | IC50 [1] [µM]
1 | CN(C)C(=O)c1ccc(-c2cc3nccc(Oc4ccc(NC(=O)N5CCN(c6ccccc6)C5=O)cc4F)c3s2)cc1 | < 0.25 | < 0.25 | 0.25 to 0.5 | < 0.25 | < 0.25
2 | Cn1ccnc1-c1cc2nccc(Oc3ccc(NC(=O)c4cccc(-c5ccccc5)c4F)cc3F)c2s1 | < 0.25 | 0.25 to 0.5 | > 1 | 0.5 to 1 | < 0.25
3 | O=C(NNC(=O)c1ccccc1)Nc1ccc(Oc2ccnc3cc(C4=CCNCC4)sc23)c(F)c1 | < 0.25 | > 1 | > 1 | > 1 | 0.25 to 0.5
